According to ChEMBL document CHEMBL1909046, “DrugMatrix in vitro pharmacology data”:

Experiments:
[1] = DRUGMATRIX: Sodium/nucleoside co-transporter radioligand binding (ligand: nitrobenzylthioinosine); assay type: cell membranes, Cavia porcellus, Dunkin-Hartley, Cerebral cortex, Membrane; conditions: Not Active = under 50% inhibition at 10 µM
[2] = target: T1, Alpha-1D adrenergic receptor (Homo sapiens, UniProt P25100); assay type: cell membranes, HEK293, Membrane; conditions: hek293; further: in other assays of this panel Not Active means under 50% inhibition at 10 µM
T1 sequence (P25100 whole entry): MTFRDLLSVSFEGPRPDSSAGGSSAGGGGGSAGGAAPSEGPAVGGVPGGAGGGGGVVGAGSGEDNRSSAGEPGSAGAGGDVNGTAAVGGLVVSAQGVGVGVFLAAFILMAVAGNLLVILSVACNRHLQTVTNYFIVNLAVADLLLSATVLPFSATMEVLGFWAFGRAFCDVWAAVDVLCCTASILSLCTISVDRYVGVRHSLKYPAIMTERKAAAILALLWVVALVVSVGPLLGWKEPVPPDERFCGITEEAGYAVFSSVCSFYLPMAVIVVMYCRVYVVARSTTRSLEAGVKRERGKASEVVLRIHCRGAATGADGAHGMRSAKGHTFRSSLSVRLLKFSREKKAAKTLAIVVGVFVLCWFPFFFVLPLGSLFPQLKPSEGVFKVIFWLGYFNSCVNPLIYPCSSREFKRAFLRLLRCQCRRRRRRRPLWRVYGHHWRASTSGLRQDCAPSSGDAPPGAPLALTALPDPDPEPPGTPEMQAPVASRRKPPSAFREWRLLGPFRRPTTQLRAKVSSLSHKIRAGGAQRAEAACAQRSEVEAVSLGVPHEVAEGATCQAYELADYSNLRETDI

Calcitonin receptor = target: T2, Calcitonin receptor (Homo sapiens, UniProt P30988); assay type: cell membranes, Membrane; conditions: t47d; further: in other assays of this panel Not Active means under 50% inhibition at 10 µM
T2 sequence (P30988 whole entry): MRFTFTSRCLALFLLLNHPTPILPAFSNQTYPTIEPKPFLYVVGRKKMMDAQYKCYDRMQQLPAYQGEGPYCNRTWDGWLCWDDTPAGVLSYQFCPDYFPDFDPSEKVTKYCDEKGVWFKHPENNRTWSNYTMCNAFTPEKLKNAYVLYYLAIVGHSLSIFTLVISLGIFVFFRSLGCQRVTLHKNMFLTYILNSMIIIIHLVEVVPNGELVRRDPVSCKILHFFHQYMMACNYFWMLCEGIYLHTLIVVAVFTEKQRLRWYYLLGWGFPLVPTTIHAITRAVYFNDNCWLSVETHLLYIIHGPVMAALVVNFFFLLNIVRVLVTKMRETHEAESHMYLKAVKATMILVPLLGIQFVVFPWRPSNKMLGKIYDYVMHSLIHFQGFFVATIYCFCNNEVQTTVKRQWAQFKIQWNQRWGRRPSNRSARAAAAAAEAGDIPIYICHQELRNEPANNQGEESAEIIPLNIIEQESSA

Substance-P receptor = Substance-P receptor (Homo sapiens, UniProt P25103); assay type: cell membranes, CHO, Membrane; conditions: cho; further: in other assays of this panel Not Active means under 50% inhibition at 10 µM
Chain of Substance-P receptor (P25103 whole entry): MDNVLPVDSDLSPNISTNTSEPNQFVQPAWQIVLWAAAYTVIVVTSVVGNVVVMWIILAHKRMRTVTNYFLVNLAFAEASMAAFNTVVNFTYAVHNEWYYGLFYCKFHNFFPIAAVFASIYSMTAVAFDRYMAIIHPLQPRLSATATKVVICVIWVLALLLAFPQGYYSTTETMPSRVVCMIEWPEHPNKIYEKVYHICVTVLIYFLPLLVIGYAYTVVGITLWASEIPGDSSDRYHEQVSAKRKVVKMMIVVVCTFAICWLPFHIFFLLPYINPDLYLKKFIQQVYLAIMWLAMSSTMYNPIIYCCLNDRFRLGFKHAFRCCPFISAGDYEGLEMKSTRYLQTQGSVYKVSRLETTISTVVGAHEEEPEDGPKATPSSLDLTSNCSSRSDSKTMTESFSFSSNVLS

[3] = DRUGMATRIX: Glutamate, AMPA radioligand binding (ligand: [3H] AMPA); assay type: cell membranes, Rattus norvegicus, Wistar, Cerebral cortex, Membrane; conditions: Not Active = under 50% inhibition at 10 µM
Leukotriene C4 synthase = target: T3, Leukotriene C4 synthase (Cavia porcellus, UniProt A6XA80); assay type: tissue-based, Lung;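 further: enzyme inhibition assay of leukotriene C4 synthase, using LTA4 as the substrate; in other assays of this panel Not Active means under 50% inhibition at 10 µM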
T3 sequence (A6XA80 whole entry): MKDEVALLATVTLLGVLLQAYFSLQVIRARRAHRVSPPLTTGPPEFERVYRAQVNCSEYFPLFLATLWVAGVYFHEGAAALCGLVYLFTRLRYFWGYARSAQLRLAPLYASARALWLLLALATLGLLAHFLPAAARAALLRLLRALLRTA

[4] = DRUGMATRIX: Phorbol Ester radioligand binding (ligand: [3H] PDBu); assay type: cell membranes, Mus musculus, ICR, Brain, Membrane; conditions: Not Active = under 50% inhibition at 10 µM
[5] = target: T4, Receptor-type tyrosine-protein phosphatase C (Homo sapiens, UniProt P08575); parameters: species or system Escherichia coli
T4 sequence (P08575 whole entry): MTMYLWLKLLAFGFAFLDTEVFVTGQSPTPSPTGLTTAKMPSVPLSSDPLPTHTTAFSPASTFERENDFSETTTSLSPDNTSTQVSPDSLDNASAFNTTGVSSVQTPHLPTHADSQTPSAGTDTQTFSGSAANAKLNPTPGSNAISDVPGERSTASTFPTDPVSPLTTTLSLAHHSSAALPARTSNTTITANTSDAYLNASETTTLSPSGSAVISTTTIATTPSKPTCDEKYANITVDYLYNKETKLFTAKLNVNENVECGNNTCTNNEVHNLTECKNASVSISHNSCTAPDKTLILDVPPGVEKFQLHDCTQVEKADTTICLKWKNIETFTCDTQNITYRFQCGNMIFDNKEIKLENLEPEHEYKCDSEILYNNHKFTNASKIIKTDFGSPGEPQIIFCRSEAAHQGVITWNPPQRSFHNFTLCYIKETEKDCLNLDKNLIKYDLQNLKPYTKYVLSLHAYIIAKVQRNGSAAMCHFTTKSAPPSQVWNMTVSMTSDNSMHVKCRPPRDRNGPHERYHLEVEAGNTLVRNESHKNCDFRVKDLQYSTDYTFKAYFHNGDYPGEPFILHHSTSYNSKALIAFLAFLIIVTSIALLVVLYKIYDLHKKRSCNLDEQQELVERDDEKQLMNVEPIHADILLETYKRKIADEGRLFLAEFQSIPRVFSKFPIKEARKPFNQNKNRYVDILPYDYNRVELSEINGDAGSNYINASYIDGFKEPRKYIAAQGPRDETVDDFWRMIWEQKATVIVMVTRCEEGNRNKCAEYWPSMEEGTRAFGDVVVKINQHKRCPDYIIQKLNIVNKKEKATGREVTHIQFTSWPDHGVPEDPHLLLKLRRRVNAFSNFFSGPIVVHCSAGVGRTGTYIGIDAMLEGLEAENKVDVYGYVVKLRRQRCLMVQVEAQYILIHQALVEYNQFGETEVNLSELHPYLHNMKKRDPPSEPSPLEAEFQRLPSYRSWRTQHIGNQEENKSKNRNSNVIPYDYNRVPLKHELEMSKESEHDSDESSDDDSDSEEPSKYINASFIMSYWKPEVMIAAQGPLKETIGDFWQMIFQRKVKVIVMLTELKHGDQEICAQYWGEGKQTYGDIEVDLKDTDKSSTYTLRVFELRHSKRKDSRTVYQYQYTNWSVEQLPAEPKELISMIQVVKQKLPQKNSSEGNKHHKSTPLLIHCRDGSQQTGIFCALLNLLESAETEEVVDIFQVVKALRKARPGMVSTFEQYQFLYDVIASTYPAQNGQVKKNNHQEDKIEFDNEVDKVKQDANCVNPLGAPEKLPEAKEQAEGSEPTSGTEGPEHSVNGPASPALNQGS

Nc1ccn([C@@H]2O[C@H](CO)[C@@H](O)C2(F)F)c(=O)n1 [GEMCITABINE]
Not Active: IC50 [1] | Ki [1] | IC50 [2] | IC50 (Calcitonin receptor) | IC50 (Substance-P receptor) | IC50 [3] | Ki [3] | IC50 (Leukotriene C4 synthase) | IC50 [4] | Ki [4] | IC50 [5]

CC(C)=CCC/C(C)=C/CO [GERANIOL]
Not Active: IC50 [1] | Ki [1] | IC50 [2] | IC50 (Calcitonin receptor) | IC50 (Substance-P receptor) | IC50 [3] | Ki [3] | IC50 (Leukotriene C4 synthase) | IC50 [4] | Ki [4] | IC50 [5]

N=C(N)NC(=O)Cc1c(Cl)cccc1Cl [GUANFACINE]
Not Active: IC50 [1] | Ki [1] | IC50 [2] | IC50 (Calcitonin receptor) | IC50 (Substance-P receptor) | IC50 [3] | Ki [3] | IC50 (Leukotriene C4 synthase) | IC50 [4] | Ki [4] | IC50 [5]

Oc1c(Cl)cc(Cl)c(Cl)c1Cc1c(O)c(Cl)cc(Cl)c1Cl [HEXACHLOROPHENE]
Not Active: IC50 [1] | Ki [1] | IC50 [2] | IC50 (Calcitonin receptor) | IC50 (Substance-P receptor) | IC50 [3] | Ki [3] | IC50 (Leukotriene C4 synthase) | IC50 [4] | Ki [4] | IC50 [5]

NNc1nncc2ccccc12 [HYDRALAZINE]
Not Active: IC50 [1] | Ki [1] | IC50 [2] | IC50 (Calcitonin receptor) | IC50 (Substance-P receptor) | IC50 [3] | Ki [3] | IC50 (Leukotriene C4 synthase) | IC50 [4] | Ki [4] | IC50 [5]

CC(=O)[C@@]1(O)CC[C@H]2[C@@H]3CCC4=CC(=O)CC[C@]4(C)[C@H]3CC[C@@]21C [HYDROXYPROGESTERONE]
Not Active: IC50 [1] | Ki [1] | IC50 [2] | IC50 (Calcitonin receptor) | IC50 (Substance-P receptor) | IC50 [3] | Ki [3] | IC50 (Leukotriene C4 synthase) | IC50 [4] | Ki [4] | IC50 [5]

COC1=C(OC)C(=O)C(CCCCCCCCCCO)=C(C)C1=O [IDEBENONE]
Not Active: IC50 [1] | Ki [1] | IC50 [2] | IC50 (Calcitonin receptor) | IC50 (Substance-P receptor) | IC50 [3] | Ki [3] | IC50 (Leukotriene C4 synthase) | IC50 [4] | Ki [4] | IC50 [5]

CC(C)NNC(=O)c1ccncc1 [IPRONIAZID]
Not Active: IC50 [1] | Ki [1] | IC50 [2] | IC50 (Calcitonin receptor) | IC50 (Substance-P receptor) | IC50 [3] | Ki [3] | IC50 (Leukotriene C4 synthase) | IC50 [4] | Ki [4] | IC50 [5]

Cc1c(OCC(F)(F)F)ccnc1C[S+]([O-])c1nc2ccccc2[nH]1 (configuration not stated) [LANSOPRAZOLE]
Not Active: IC50 [1] | Ki [1] | IC50 [2] | IC50 (Calcitonin receptor) | IC50 (Substance-P receptor) | IC50 [3] | Ki [3] | IC50 (Leukotriene C4 synthase) | IC50 [4] | Ki [4] | IC50 [5]

O=c1cc(N2CCOCC2)oc2c(-c3ccccc3)cccc12 [LY-294002]
Not Active: IC50 [1] | Ki [1] | IC50 [2] | IC50 (Calcitonin receptor) | IC50 (Substance-P receptor) | IC50 [3] | Ki [3] | IC50 (Leukotriene C4 synthase) | IC50 [4] | Ki [4] | IC50 [5]

COc1ccc2[nH]cc(CCNC(C)=O)c2c1 [MELATONIN]
Not Active: IC50 [1] | Ki [1] | IC50 [2] | IC50 (Calcitonin receptor) | IC50 (Substance-P receptor) | IC50 [3] | Ki [3] | IC50 (Leukotriene C4 synthase) | IC50 [4] | Ki [4] | IC50 [5]

NC(=O)C[S+]([O-])C(c1ccccc1)c1ccccc1 (configuration not stated) [MODAFINIL]
Not Active: IC50 [1] | Ki [1] | IC50 [2] | IC50 (Calcitonin receptor) | IC50 (Substance-P receptor) | IC50 [3] | Ki [3] | IC50 (Leukotriene C4 synthase) | IC50 [4] | Ki [4] | IC50 [5]

CCN(CC)CCOCCC1=CCC2CC1C2(C)C (configuration not stated) [MYRTECAINE]
Not Active: IC50 [1] | Ki [1] | IC50 [2] | IC50 (Calcitonin receptor) | IC50 (Substance-P receptor) | IC50 [3] | Ki [3] | IC50 (Leukotriene C4 synthase) | IC50 [4] | Ki [4] | IC50 [5]

O=C(O)c1cccnc1Nc1cccc(C(F)(F)F)c1 [NIFLUMIC ACID]
Not Active: IC50 [1] | Ki [1] | IC50 [2] | IC50 (Calcitonin receptor) | IC50 (Substance-P receptor) | IC50 [3] | Ki [3] | IC50 (Leukotriene C4 synthase) | IC50 [4] | Ki [4] | IC50 [5]

O=C(N/N=C/c1ccc([N+](=O)[O-])o1)c1cc([N+](=O)[O-])cc([N+](=O)[O-])c1O [NIFURSOL]
Not Active: IC50 [1] | Ki [1] | IC50 [2] | IC50 (Calcitonin receptor) | IC50 (Substance-P receptor) | IC50 [3] | Ki [3] | IC50 (Leukotriene C4 synthase) | IC50 [4] | Ki [4] | IC50 [5]

COC(=O)Nc1nc2ccc(C(=O)c3cccs3)cc2[nH]1 [NOCODAZOLE]
Not Active: IC50 [1] | Ki [1] | IC50 [2] | IC50 (Calcitonin receptor) | IC50 (Substance-P receptor) | IC50 [3] | Ki [3] | IC50 (Leukotriene C4 synthase) | IC50 [4] | Ki [4] | IC50 [5]

C#CC1(O)CC[C@H]2[C@@H]3CCC4=CC(=O)CC[C@@H]4[C@H]3CC[C@@]21CC (some centres not stated) [NORGESTREL]
Not Active: IC50 [1] | Ki [1] | IC50 [2] | IC50 (Calcitonin receptor) | IC50 (Substance-P receptor) | IC50 [3] | Ki [3] | IC50 (Leukotriene C4 synthase) | IC50 [4] | Ki [4] | IC50 [5]
